Drawing on patent publication US20260297080A1, “BICYCLIC COMPOUNDS AS CDK INHIBITORS” (BeOne Medicines I GmbH, priority 2022, published 2026), this text covers IC50 for 20 compounds.

One assay concerns the target CDK2/Cyclin E1 (Homo sapiens, UniProt P24941). Nature of the assay: CDK2/Cyclin E1 Biochemical Assay (TR-FRET), 1 mM ATP. The following applies: 0.15 μM Rb (Ser780)-biotin substrate, pH7.0, 60 min preincubation, 90 min reaction, room temperature. How it is done:
(§1) CDK2/Cyclin E1 and CDK1/Cyclin B1 Biochemical Assays
(§2) Compounds disclosed herein were tested for inhibition of CDK2/Cyclin E1 or CDK1/Cyclin B1 kinase in an assay based on the time-resolved fluorescence-resonance energy transfer (TR-FRET) methodology. The assay was carried out in 384-well low volume black plates in a reaction mixture containing CDK2/Cyclin E1 or CDK1/Cyclin B1, 1 mM ATP for CDK2/Cyclin E1 and CDK1/Cyclin B1, 0.15 μM Rb (Ser780)-biotin substrate and 0-10 μM compound in buffer containing 50 mM HEPES pH7.0, 0.02% NaN3, 0.01% BSA, 0.1 mM Orthovanadate, 50 mM MgCl2, 1 mM DTT and 0.005% Tween-20. The kinase was incubated with compound for 60 minutes at room temperature and the reaction was initiated by the addition of ATP and Rb (Ser780)-biotin substrate. After reaction at room temperature for 90 minutes, an equal volume of stop/detection solution was added according to the manufacture's instruction (Cisbio Bioassays). The stop/detection solution contained Streptavidin-XL665 and Anti-pRb (Ser780) mAb-Eu Cryptate in Detection buffer (Cisbio Bioassays). Plates were incubated at room temperature for 60 minutes, and the TR-FRET signals (ex337 nm, em665 nm/620 nm) were recorded on a PHERAstar FSX plate reader (BMG Labtech). The inhibition percentage of CDK2/Cyclin E1 or CDK1/Cyclin B1 kinase activity in presence of increasing concentrations of compounds was calculated based on the ratio of fluorescence at 665 nm to that at 620 nm. The IC50 for each compound was derived from fitting the data to the four-parameter logistic equation by Dotmatics.
(In general: In TR-FRET formats the signal depends on donor and acceptor labels being close together.)

In the next assay the target is CDK1/Cyclin B1 (Homo sapiens, UniProt P06493). Nature of the assay: CDK1/Cyclin B1 Biochemical Assay (TR-FRET), 1 mM ATP. The conditions noted are these: 0.15 μM Rb (Ser780)-biotin substrate, pH7.0, 60 min preincubation, 90 min reaction, room temperature. How it is done: as §1, §2
Chain of CDK1/Cyclin B1 (P06493 whole entry): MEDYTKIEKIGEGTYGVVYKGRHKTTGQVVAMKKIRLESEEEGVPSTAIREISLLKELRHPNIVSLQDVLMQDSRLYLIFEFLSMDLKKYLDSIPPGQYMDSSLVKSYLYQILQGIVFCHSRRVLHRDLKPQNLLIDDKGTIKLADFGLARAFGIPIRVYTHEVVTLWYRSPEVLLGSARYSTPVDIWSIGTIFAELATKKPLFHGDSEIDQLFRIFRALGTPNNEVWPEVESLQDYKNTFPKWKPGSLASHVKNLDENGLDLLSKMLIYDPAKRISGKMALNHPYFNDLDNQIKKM
Chain of CDK1/Cyclin B1 (P14635 whole entry partner): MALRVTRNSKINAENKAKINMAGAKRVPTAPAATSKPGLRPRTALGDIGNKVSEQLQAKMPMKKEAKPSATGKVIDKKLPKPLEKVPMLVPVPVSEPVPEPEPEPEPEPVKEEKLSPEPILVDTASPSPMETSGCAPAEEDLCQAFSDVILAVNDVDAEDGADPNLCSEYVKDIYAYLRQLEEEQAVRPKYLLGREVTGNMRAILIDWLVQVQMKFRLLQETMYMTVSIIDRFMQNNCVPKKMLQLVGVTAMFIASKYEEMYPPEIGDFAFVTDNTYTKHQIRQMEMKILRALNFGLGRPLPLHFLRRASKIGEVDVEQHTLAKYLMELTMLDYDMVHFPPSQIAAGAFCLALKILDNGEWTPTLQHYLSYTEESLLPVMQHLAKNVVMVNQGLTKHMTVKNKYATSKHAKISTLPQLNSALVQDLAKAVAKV

Molecules are shown by their SMILES. Bounds are passed on as bounds.

As usually defined, the IC50 is the concentration that inhibits the measured activity by half. Turning to `CC[C@H](C)NC(=O)O[C@H]1CC[C@@H](c2cc(Nc3ccc4c(c3F)CS(=O)(=O)N4CC(C)(C)O)n[nH]2)C1` (relative stereo) [Example 434, cis-3-(3-((4-fluoro-1-(2-hydroxy-2-methylpropyl)-2,2-dioxido-1,3-dihydrobenzo[c]isothiazol-5-yl)amino)-1H-pyrazol-5-yl)cyclopentyl((S)-sec-butyl)carbamate], the IC50 is 0.0017 µM at CDK2/Cyclin E1 and 0.747 µM against CDK1/Cyclin B1.

For the compound `CC(C)NC(=O)O[C@H]1CC[C@@H](c2cc(Nc3ccc4c(c3F)CS(=O)(=O)N4CC(C)(C)O)n[nH]2)C1` (single isomer, unassigned) [Example 254b, cis-3-(3-((4-fluoro-1-(2-hydroxy-2-methylpropyl)-2,2-dioxido-1,3-dihydrobenzo[c]isothiazol-5-yl)amino)-1H-pyrazol-5-yl)cyclopentyl isopropylcarbamate], the IC50 was determined as 0.0089 µM against CDK2/Cyclin E1 and 1.38 µM against CDK1/Cyclin B1.

Consider `O=C(NC12CC(C1)C2)O[C@H]1CC[C@@H](c2cc(Nc3cc4c(cc3F)S(=O)(=O)NC4)n[nH]2)C1` (single isomer, unassigned) [Example 422b, cis-3-(3-((6-fluoro-1,1-dioxido-2,3-dihydrobenzo[d]isothiazol-5-yl)amino)-1H-pyrazol-5-yl)cyclopentyl bicyclo[1.1.1]pentan-1-ylcarbamate], for which the IC50 on CDK2/Cyclin E1 worked out at 0.001 µM; against CDK1/Cyclin B1, 0.98 µM.

Regarding `[2H]C([2H])([2H])N1c2ccc(Nc3cc([C@@H]4CC[C@H](OC(=O)NC56CC(C5)C6)C4)[nH]n3)cc2CS1(=O)=O` (relative stereo) [Example 455, cis-3-(3-((1-(methyl-d3)-2,2-dioxido-1,3-dihydrobenzo[c]isothiazol-5-yl)amino)-1H-pyrazol-5-yl)cyclopentyl bicyclo[1.1.1]pentan-1-ylcarbamate], the figures for the IC50 on CDK2/Cyclin E1 and against CDK1/Cyclin B1 were 0.0009 µM and 0.097 µM, respectively.

`CN1c2ccc(Nc3cc([C@@H]4CC[C@H](OC(=O)NC5CCOC5)C4)[nH]n3)cc2CS1(=O)=O` (relative stereo) [Example 424, cis-3-(3-((1-methyl-2,2-dioxido-1,3-dihydrobenzo[c]isothiazol-5-yl)amino)-1H-pyrazol-5-yl)cyclopentyl(tetrahydrofuran-3-yl)carbamate]: the IC50 is 0.084 µM against CDK2/Cyclin E1 and over 10 µM against CDK1/Cyclin B1.

On to `CN1c2ccc(Nc3cc([C@@H]4CC[C@H](OC(=O)NC56CC(C5)C6)C4)[nH]n3)c(F)c2CS1(=O)=O` (relative stereo) [Example 452, cis-3-(3-((4-fluoro-1-methyl-2,2-dioxido-1,3-dihydrobenzo[c]isothiazol-5-yl)amino)-1H-pyrazol-5-yl)cyclopentyl bicyclo[1.1.1]pentan-1-ylcarbamate], for which the IC50 is 0.0005 µM on CDK2/Cyclin E1 and 0.487 µM at CDK1/Cyclin B1.

Consider `CC1(NC(=O)O[C@H]2CC[C@@H](c3cc(Nc4ccc5c(c4F)CS(=O)(=O)N5)n[nH]3)C2)CCCC1` (relative stereo) [Example 439, cis-3-(3-((4-fluoro-2,2-dioxido-1,3-dihydrobenzo[c]isothiazol-5-yl)amino)-1H-pyrazol-5-yl)cyclopentyl(1-methylcyclopentyl)carbamate], for which the concentration for half-maximal inhibition (IC50) against CDK2/Cyclin E1 is 0.0027 µM; at CDK1/Cyclin B1, 0.215 µM.

Consider `CC1(NC(=O)O[C@H]2CC[C@@H](c3cc(Nc4ccc5c(c4F)CCS(=O)(=O)N5)n[nH]3)C2)CC1` (relative stereo) [Example 462, cis-3-(3-((5-fluoro-2,2-dioxido-3,4-dihydro-1H-benzo[c][1,2]thiazin-6-yl)amino)-1H-pyrazol-5-yl)cyclopentyl(1-methylcyclopropyl)carbamate], for which the figures for the concentration for half-maximal inhibition (IC50) against CDK2/Cyclin E1 and against CDK1/Cyclin B1 were 0.0007 µM and 0.349 µM, respectively.

Turning to `O=C(NC12CC(O)(C1)C2)O[C@H]1CC[C@@H](c2cc(Nc3cc4c(cc3F)S(=O)(=O)NC4)n[nH]2)C1` (relative stereo) [Example 456, cis-3-(3-((6-fluoro-1,1-dioxido-2,3-dihydrobenzo[d]isothiazol-5-yl)amino)-1H-pyrazol-5-yl)cyclopentyl(3-hydroxybicyclo[1.1.1]pentan-1-yl)carbamate], the IC50 against CDK2/Cyclin E1 was 0.0005 µM; against CDK1/Cyclin B1, 0.55 µM.

Regarding `CC(C)NC(=O)O[C@H]1CC[C@@H](c2cc(Nc3ccc4c(c3F)N(C)S(=O)(=O)N4C)n[nH]2)C1` (relative stereo) [Example 458, cis-3-(3-((4-fluoro-1,3-dimethyl-2,2-dioxido-1,3-dihydrobenzo[c][1,2,5]thiadiazol-5-yl)amino)-1H-pyrazol-5-yl)cyclopentyl isopropylcarbamate], the IC50 stood at 0.012 µM on CDK2/Cyclin E1 and 3.5 µM against CDK1/Cyclin B1.

On to `CC(C)NC(=O)O[C@H]1CC[C@@H](c2cc(Nc3ccc4c(c3F)NS(=O)(=O)N4)n[nH]2)C1` (relative stereo) [Example 465, cis-3-(3-((4-fluoro-2,2-dioxido-1,3-dihydrobenzo[c][1,2,5]thiadiazol-5-yl)amino)-1H-pyrazol-5-yl)cyclopentyl isopropylcarbamate], for which the 50% inhibitory concentration (IC50) at CDK2/Cyclin E1 came out at 0.018 µM; on CDK1/Cyclin B1 it was 4.89 µM.

As to `O=C(NCC1CC1)O[C@H]1CC[C@@H](c2cc(Nc3cc4c(cc3F)S(=O)(=O)NC4)n[nH]2)C1` (relative stereo) [Example 420, cis-3-(3-((6-fluoro-1,1-dioxido-2,3-dihydrobenzo[d]isothiazol-5-yl)amino)-1H-pyrazol-5-yl)cyclopentyl(cyclopropylmethyl)carbamate], the IC50 at CDK2/Cyclin E1 worked out at 0.024 µM; on CDK1/Cyclin B1, 5.51 µM.

On to `O=C(N[C@@H]1C[C@H]1O)O[C@H]1CC[C@@H](c2cc(Nc3ccc4c(c3F)CNS4(=O)=O)n[nH]2)C1` (relative stereo) [Example 442, cis-3-(3-((4-fluoro-1,1-dioxido-2,3-dihydrobenzo[d]isothiazol-5-yl)amino)-1H-pyrazol-5-yl)cyclopentyl((1R,2R)-2-hydroxycyclopropyl)carbamate], for which the IC50 against CDK2/Cyclin E1 turned out to be 0.055 µM; on CDK1/Cyclin B1, 2.99 µM.

For `O=C(NC1CCOC1)O[C@H]1CC[C@@H](c2cc(Nc3ccc4c(c3F)CS(=O)(=O)N4)n[nH]2)C1` (relative stereo) [Example 431, cis-3-(3-((4-fluoro-2,2-dioxido-1,3-dihydrobenzo[c]isothiazol-5-yl)amino)-1H-pyrazol-5-yl)cyclopentyl(tetrahydrofuran-3-yl)carbamate], the IC50 is 0.042 µM against CDK2/Cyclin E1 and over 10 µM against CDK1/Cyclin B1.

Consider `CC1(C)CCCN1C(=O)O[C@H]1CC[C@@H](c2cc(Nc3cc4c(cc3F)S(=O)(=O)NC4)n[nH]2)C1` (relative stereo) [Example 447, cis-3-(3-((6-fluoro-1,1-dioxido-2,3-dihydrobenzo[d]isothiazol-5-yl)amino)-1H-pyrazol-5-yl)cyclopentyl 2,2-dimethylpyrrolidine-1-carboxylate], for which the IC50 at CDK2/Cyclin E1 was found to be 0.0048 µM; against CDK1/Cyclin B1 it was 1.28 µM.

As for `CCCNC(=O)O[C@@H]1CC[C@H](c2cc(Nc3ccc4c(c3F)CS(=O)(=O)N4CC(C)(C)O)n[nH]2)C1` [Example 433a], the half-inhibitory concentration (IC50) is 0.018 µM on CDK2/Cyclin E1 and 3.1 µM at CDK1/Cyclin B1.

For the compound `CC(C)NC(=O)O[C@H]1CC[C@@H](c2cc(Nc3ccc4c(c3F)N(C)S(=O)(=O)N4)n[nH]2)C1` (relative stereo) [Example 466, cis-3-(3-((4-fluoro-3-methyl-2,2-dioxido-1,3-dihydrobenzo[c][1,2,5]thiadiazol-5-yl)amino)-1H-pyrazol-5-yl)cyclopentyl isopropylcarbamate], the IC50 against CDK2/Cyclin E1 was 0.063 µM; at CDK1/Cyclin B1 it was over 10 µM.

Turning to `CC1(NC(=O)O[C@H]2CC[C@@H](c3cc(Nc4cc5c(cc4F)S(=O)(=O)NC5)n[nH]3)C2)COC1` (relative stereo) [Example 451, cis-3-(3-((6-fluoro-1,1-dioxido-2,3-dihydrobenzo[d]isothiazol-5-yl)amino)-1H-pyrazol-5-yl)cyclopentyl(3-methyloxetan-3-yl)carbamate], the IC50 on CDK2/Cyclin E1 was 0.0099 µM; against CDK1/Cyclin B1, 7.05 µM.

For the compound `CN1c2ccc(Nc3cc([C@@H]4CC[C@H](OC(=O)NCC(C)(C)O)C4)[nH]n3)c(F)c2CS1(=O)=O` (single isomer, unassigned) [Example 330a, cis-3-(3-((4-fluoro-1-methyl-2,2-dioxido-1,3-dihydrobenzo[c]isothiazol-5-yl)amino)-1H-pyrazol-5-yl)cyclopentyl(2-hydroxy-2-methylpropyl)carbamate], the half-inhibitory concentration (IC50) was 0.084 µM against CDK2/Cyclin E1 and over 10 µM on CDK1/Cyclin B1.

For the compound `[2H]C([2H])([2H])N1c2ccc(Nc3cc([C@@H]4CC[C@H](OC(=O)NC(C)(C)C)C4)[nH]n3)cc2CS1(=O)=O` (relative stereo) [Example 454, cis-3-(3-((1-(methyl-d3)-2,2-dioxido-1,3-dihydrobenzo[c]isothiazol-5-yl)amino)-1H-pyrazol-5-yl)cyclopentyl tert-butylcarbamate], the IC50 on CDK2/Cyclin E1 amounted to 0.0005 µM; against CDK1/Cyclin B1, 0.114 µM.
